From patent US12448394B2, “Heterocyclic pyrazole derivatives as type III receptor tyrosine kinase inhibitors” (DEVELOPMENT CENTER FOR BIOTECHNOLOGY, priority 2019, dated 2025)
Positions count from the first letter of the chain named.

Columns and labels:
FLT3 kinase = molecular target: T1, FLT3 kinase (Homo sapiens, UniProt P36888); test: FLT3 kinase assay (AlphaScreen); type: biochemical; settings: mean; read-out: Biochemical activity (Mean IC50, nM) FLT3
T1 construct: purchased SignalChem
T1 sequence (P36888 27-993): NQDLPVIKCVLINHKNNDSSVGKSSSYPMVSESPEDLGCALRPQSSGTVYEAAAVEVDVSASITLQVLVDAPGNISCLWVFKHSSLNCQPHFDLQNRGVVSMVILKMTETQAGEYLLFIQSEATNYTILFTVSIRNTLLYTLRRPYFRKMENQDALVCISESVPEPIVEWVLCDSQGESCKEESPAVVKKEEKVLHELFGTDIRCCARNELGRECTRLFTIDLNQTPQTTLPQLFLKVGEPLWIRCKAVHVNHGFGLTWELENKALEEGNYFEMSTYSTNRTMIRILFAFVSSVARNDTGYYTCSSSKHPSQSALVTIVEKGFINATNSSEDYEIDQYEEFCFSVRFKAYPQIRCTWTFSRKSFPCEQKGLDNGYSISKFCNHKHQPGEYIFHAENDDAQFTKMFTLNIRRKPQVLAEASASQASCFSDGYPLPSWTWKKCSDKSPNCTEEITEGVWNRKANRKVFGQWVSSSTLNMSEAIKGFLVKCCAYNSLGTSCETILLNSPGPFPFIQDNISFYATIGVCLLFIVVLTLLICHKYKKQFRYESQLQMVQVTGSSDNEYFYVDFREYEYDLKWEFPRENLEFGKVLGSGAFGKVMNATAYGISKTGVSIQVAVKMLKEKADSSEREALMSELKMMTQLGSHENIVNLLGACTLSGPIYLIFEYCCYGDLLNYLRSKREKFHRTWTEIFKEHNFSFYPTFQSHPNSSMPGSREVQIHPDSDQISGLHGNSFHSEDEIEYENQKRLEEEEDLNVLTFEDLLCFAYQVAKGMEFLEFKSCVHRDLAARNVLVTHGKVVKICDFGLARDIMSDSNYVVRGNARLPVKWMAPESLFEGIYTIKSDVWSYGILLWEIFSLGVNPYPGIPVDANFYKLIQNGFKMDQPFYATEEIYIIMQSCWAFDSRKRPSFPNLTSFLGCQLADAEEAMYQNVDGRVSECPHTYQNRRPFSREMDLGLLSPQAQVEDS
Method: (§1) Inhibition of FLT3 kinase activity by a test compound disclosed herein was estimated by AlphaScreen (PerkinElmer, Akron, Ohio, USA). Standard assay conditions were 1.5 ng of recombinant FLT3 kinase (SignalChem, Richmond, BC, Canada) with 6 ng Biotin-conjugated Poly-(Glu 4: Tyr 1) (Cisbio, Bedford, MA, USA) in the assay buffer (10 μM ATP, 10 mM MOPs, pH7.0, 0.21 mM EDTA, 0.5% glycerol, 1 mg/mL BSA, 0.01% 2-mercaptoethanol, 0.001% Brij35, 10 mM MgCl2) in a final volume of 25 μL. Reactions were incubated at 30° C. for 30 min and stopped by adding 5 μL of 50 mM EDTA. Analysis of resulting product using an AlphaScreen kit and counted with Enspire Alpha (PerkinElmer, Waltham, MA, USA). […] The IC50 values of inhibitors were determined after carrying out assays with each compound at serially diluted concentrations in duplication. The results were analyzed using linear regression software (GraphPad Prism 5; GraphPad Software Inc.)

FLT3-D835Y mutant kinase = molecular target: T2, FLT3-D835Y mutant kinase (Homo sapiens, UniProt P36888, D835Y); test: FLT3-D835Y mutant kinase assay (AlphaScreen); type: biochemical; settings: mean; read-out: Biochemical activity (Mean IC50, nM) FLT3-D835Y
T2 construct: purchased SignalChem
T2 sequence (P36888 27-993 D835Y): T1 sequence (P36888 27-993) with D809Y
Method: as §1, with “FLT3-D835Y mutant” for “FLT3”, “(PerkinElmer).” for “(PerkinElmer, Akron, Ohio, USA).”, “1” for “1.5”, “(SignalChem)” for “(SignalChem, Richmond, BC, Canada)”, “(Cisbio)” for “(Cisbio, Bedford, MA, USA)”, “(PerkinElmer).” for “(PerkinElmer, Waltham, MA, USA).”

[1] = system: Molm-14 human acute myeloid leukemia cell with FLT3-ITD mutation; test: Molm-14 cell proliferation assay (CellTiter 96); type: cell-based; settings: Homo sapiens; Molm-14 cells, 72 hours treatment, CellTiter96; read-out: anti-proliferation activity Molm-14 (FLT3-ITD), IC50 ranking
Method: (§2) Inhibitions of cell growths by compounds were measured using CellTiter™-96 assay. The cytotoxicities of compounds of the invention were evaluated in cell line panels with different signaling pathway dependencies, including MV4-11 human acute myeloid leukemia cell with FLT3-ITD mutation, Molm-14 human acute myeloid leukemia cell with FLT3-ITD mutation, THP-1 human acute monocytic leukemia cell with NRAS G12D mutation, A375 melanoma cell with BRAF V600E mutation, and HCC827 NSCLC cell with EGFR exon 19 deletion mutation.
The compounds disclosed herein were tested in Molm-14 cell proliferation assay to determine their cellular potencies against FLT3 signal pathway dependent cell growths. Molm-14 cells are human acute myeloid leukemia (AML) cells harboring ligand-independent FLT3-ITD activating mutation, which renders the abnormal proliferation of the AML cells FLT3 signaling pathway dependent. Inhibition of FLT3 kinase activity will result in reduced growths and/or cell deaths. […] Briefly, cells were grown in RPMI 1640 medium supplemented with 10% heat inactivated fetal bovine serum and incubated at 37° C. in 5% CO2 atmosphere. Cells were allowed to expand until reaching saturation, at which point they were sub-cultured or harvested for assay use.
(§3) MV4-11, Molm-14, THP-1, A375, and HCC827 cells were seeded into 96-well plates at 6500, 25000, 5000, 2000 and 8000 cells/well, respectively, and incubated at 37° C., 5% CO2 overnight. Then, these seeded cells were treated with increasing concentrations of the test compounds and incubated for another 72 hours. At the end of the incubation, CellTiter96® AQueous One Solution Reagent (Promega, […]) was added and incubated for the additional 2˜4 hours. Cell viability was determined by measuring absorbance at 490 nm using EMax® microplate reader (Molecular Devices, San Jose, CA, USA).

[2] = system: A375 melanoma cell with BRAF V600E mutation; test: A375 cell proliferation assay (counter screen); type: cell-based, human; settings: Homo sapiens, A-375, A375 cells, 72 hours treatment, CellTiter96, read-out: anti-proliferation activity A375 BRAF V600E, IC50 ranking
Method: as §2
(§4) A375 cells are melanoma cells encoding BRFA V600E mutation, which renders the cell growth dependent on BRAF signaling instead of class III RTKs signaling. A375 cells (catalog #CRL-1619) were obtained from the ATCC. Briefly, cells were cultured in DMEM containing 10% FBS and incubated at 37° C. in 5% CO2 atmosphere. Cells were allowed to expand until reaching saturation, at which point they were sub-cultured or harvested for assay use.
as §3

[3] = system: MV4-11 human acute myeloid leukemia cell with FLT3-ITD mutation; test: MV4-11 cell proliferation assay (CellTiter 96); type: cell-based; settings: Homo sapiens, MV4-11, 72 h, MV4-11 cells, 72 hours treatment, CellTiter96; read-out: anti-proliferation activity MV4-11 (FLT3-ITD), IC50 ranking
Method: as §2
The compounds disclosed herein were tested in MV4-11 cell proliferation assay to determine their cellular potencies against FLT3 signal pathway dependent cell growths. MV4-11 cells are human acute myeloid leukemia (AML) cells harboring ligand-independent FLT3-ITD activating mutation, which renders the abnormal proliferation of AML cells FLT3 signaling pathway dependent. Inhibition of FLT3 kinase activity will result in reduced growths and/or cell deaths. MV4-11 cells (catalog #CRL-9591) were obtained from the American Type Culture Collection (ATCC, Manassas, VA). Briefly, cells were grown in IMDM medium supplemented with 10% heat inactivated fetal bovine serum and incubated at 37° C. in 5% CO2 atmosphere. Cells were allowed to expand until reaching saturation, at which point they were sub-cultured or harvested for assay use.
as §3

[4] = system: HCC827 NSCLC cell with EGFR exon 19 deletion mutation; test: HCC827 cell proliferation assay (counter screen); type: cell-based, human; settings: Homo sapiens, HCC827 cells, 72 hours treatment, CellTiter96, read-out: anti-proliferation activity HCC827 EGFR Exon19 del, IC50 ranking
Method: as §2
as §4, with “HCC827” for “A375”, “non-small cell lung carcinoma (NSCLC)” for “melanoma”, “EGFR exon 19 deletion” for “BRFA V600E”, “EGFR” for “BRAF”, “#CRL-2868)” for “#CRL-1619)”, “RPMI1640 medium supplemented with” for “DMEM containing”
as §3

[5] = system: THP-1 human acute monocytic leukemia cell with NRAS G12D mutation; test: THP-1 cell proliferation assay (counter screen); type: cell-based; settings: Homo sapiens, THP-1 cells, 72 hours treatment, CellTiter96, read-out: anti-proliferation activity THP-1 NRAS N12D, IC50 ranking
Method: as §2
THP-1 cells are human acute monocytic leukemia cells with NRAS G12D mutation, which renders the cell growth independent of class III RTKs signaling. THP-1 cells (catalog #TIB-202) were obtained from the ATCC. Briefly, cells were grown in RPMI 1640 medium supplemented with 10% heat inactivated fetal bovine serum and 0.05 mM 2-mercaptoethanol and incubated at 37° C. in 5% CO2 atmosphere. Cells were allowed to expand until reaching saturation, at which point they were sub-cultured or harvested for assay use.
as §3

SMILES | IC50 (FLT3 kinase) [nM] | IC50 (FLT3-D835Y mutant kinase) [nM] | IC50 [1] [nM] | IC50 [2] [nM] | IC50 [3] [nM] | IC50 [4] [nM] | IC50 [5] [nM]
COc1ccc(-c2n[nH]c3c2Cc2sc(-c4ccc(N)nc4)cc2-3)cc1 [Example H, 5-(3-(4-methoxyphenyl)-1,4-dihydrothieno[2′,3′:4,5]cyclopenta[1,2-c]pyrazol-6-yl)pyridin-2-amine, reference compound] | 8 | 15 | – | – | – | – | –
Cn1ncc2ccc(-c3n[nH]c4c3Cc3sc(-c5ccc(CN6CCOCC6)cn5)cc3-4)cc21 [Compound 55, 4-((6-(3-(1-methyl-1H-indazol-6-yl)-1,4-dihydro-thieno[2′,3′:4,5]cyclopenta [1,2-c]pyrazol-6-yl)pyridin-3-yl)methyl) morpholine] | – | – | < 30 | > 10000 | < 30 | > 10000 | > 10000
